Measured values as given in patent US5736629A, “Herbicide resistant rice” (priority 1997, dated 1998).

Tests used:
[1] = system: mutagenised rice seedlings of ten rice varieties; test: Field screen of mutagenised rice seedlings, all other plants; type: in vivo; settings: 2X treatment: nicosulfuron 0.063 lb a.i. per acre, imazethapyr 0.125 lb a.i. per acre; 0.25% non-ionic surfactant; 3-4 leaf stage; about four weeks later
Text: (§1) The second resistance mechanism resulted from inducing mutations in seeds of each of ten rice varieties. Mutations were induced by exposure either to gamma rays or to the chemical mutagen ethyl methanesulfonate (EMS). Ten-pound lots of seed of each variety were subjected to 25 k-rad of gamma irradiation from a Cobalt-60 source at the Nuclear Science Center, Louisiana State University, Baton Rouge, La. prior to planting. An additional ten pounds of seed of each variety was divided into three equal portions; and each portion was soaked for 16 hours in either 0.1%, 0.5%, or 1% EMS immediately prior to planting. Several hundred pounds of seed were harvested from plants grown from the seeds subjected to these mutagenic treatments.
(§2) The following spring the harvested seed was planted in strips in a field planting occupying a total of about three acres. At the 3-4 leaf stage of seedling development, herbicides were applied to screen for herbicide-resistant mutants. Half of the seedlings of each variety were sprayed with a 2X treatment of nicosulfuron, and half were sprayed with a 2X treatment of imazethapyr, in both cases by a tractor-mounted sprayer. Nicosulfuron was applied at the rate of 0.063 lb active ingredient (a.i.) per acre, and imazethapyr was applied at 0.125 lb a.i. per acre. Non-ionic surfactant (0.25%) was added to each spray solution. […]

[2] = system: other anther-culture progeny rows of Mercury//Lemont/Mercury rice; test: Open-field spray screen of anther-culture progeny rows, all other rows; type: in vivo
Description: This resistant line was derived by conducting anther culture on the F2 progeny of a backcross made by pollinating a rice plant of the variety "Lemont" with pollen from the rice variety "Mercury," followed by a backcross using pollen from this hybrid to pollinate a plant of the variety "Mercury." The resulting backcross is described as Mercury//Lemont/Mercury. Anthers collected from a plant resulting from this backcross were plated on callus induction medium, and the resulting calli were transferred to plant regeneration media. The procedures used were generally as described in Croughan and Chu, "Rice (Oryza saliva L.): Establishment of Callus Cultures and the Regeneration of Plants" in Bajaj (Ed.), "Biotechnology in Agriculture and Forestry," pp. 19-37 (1991). Several regenerated plants were produced and grown to maturity in a greenhouse to produce seed. Progeny seed were planted in an open field, and herbicide applications were made using a garden tractor-mounted spray rig.
A set of 4,193 progeny rows derived from this anther culture procedure were planted in an open field, and were sprayed with 4 ounces per acre of Pursuit (1.00 ounce active ingredient imazethapyr per acre) at the four-leaf stage of seedling development. […]

[3] = system: Resistant F3 Hybrid of ATCC 75295 and ATCC 97523; test: Greenhouse test of plant vigor after imazethapyr, resistant F3 hybrid; type: in vivo, rice; settings: for Rating of rice plant vigor: 36 days after treatment at 2-3 leaf stage, 10-point scale, 0 = dead plant, 10 = no visible injury
Text: (§3) In the greenhouse tests, pots were planted with F3 seed from crosses between the two lines. Each pot was planted with seed from a single panicle from a single plant; each pot was therefore the equivalent of a headrow. A total of 140 pots were planted in this manner, along with 40 pots of various non-resistant genotypes for comparison. Imazethapyr was applied at the 2-3 leaf stage two weeks after planting, at rates equivalent to 0.063 lb. active ingredient (a.i.) per acre, 0.125 lb. a.i./acre, and 0.313 lb. a.i./acre.
Because the material being tested was an F3 population, with genes still segregating, individual plants had different levels of resistance. At the time this patent application is being filed, there had not been sufficient time to raise rice lines that were demonstrably homozygous for both resistance mechanisms. Raising such demonstrably homozygous lines will be routine for one of ordinary skill in the art, but will require additional time.
(§4) Table 2 summarizes measurements taken 36 days after spraying rice at the 2-3 leaf stage of development.

[4] = system: single surviving plant derived from rice variety AS3510 treated with 0.5% EMS; test: Field screen of mutagenised rice seedlings, surviving plant; type: in vivo; settings: imazethapyr 0.125 lb a.i. per acre (2X), 0.25% non-ionic surfactant; 3-4 leaf stage; about four weeks later
Text: as §1, §2

ATCC 75295 rice line = test: Field plot test with AHAS-inhibiting herbicides, ATCC 75295; type: in vivo
Description: The resistance of these plants to several other AHAS-inhibiting herbicides was also tested. Nine-foot-long field plots were planted with seven rows of rice per plot. The test included nine check rice varieties, and the ATCC 75295 rice line. A shielded spray boom was used to apply herbicide, spraying six of the seven rows in each plot. The four herbicides used were Pursuit (imazethapyr: (±)-2-[4,5-dihydro-4-methyl-4-(1-methylethyl)-5-oxo-1H-imidazol-2-yl]-5-ethyl-3-pyridinecarboxylic acid); Scepter (imazaquin: 2-[4,5-dihydro-4-methyl-4-(1-methylethyl)-5-oxo-1H-imidazol-2-yl]-3-quinolinecarboxylic acid); Accent (nicosulfuron: 2-(((((4,6-dimethoxypyrimidin-2-yl)aminocarbonyl)) aminosulfonyl))-N,N-dimethyl-3-pyridinecarboxamide); and Beacon (primisulfuron: 3-[4,6-bis(difluoromethoxy)-pyrimidin-2-yl]-1-(2-methoxycarbonylphenylsulfonyl)urea). The herbicides were applied to two replicate plots for each herbicide when the rice was at the three-leaf stage of maturity. Two replicate plots of each check variety and of the resistant line were left unsprayed as controls. The Accent treatment used 0.67 ounce of product (0.50 ounce active ingredient) per acre, with 0.25% nonionic surfactant. The Pursuit treatment used four ounces of product (1.00 ounce active ingredient) per acre, with 0.25% nonionic surfactant. The Scepter treatment used one pint of product (3.00 ounces active ingredient) per acre, with 0.25% nonionic surfactant. The Beacon treatment used 0.76 ounce of product (0.57 ounce active ingredient) per acre, with 0.25% nonionic surfactant. […] A similar test with the same rice varieties and the ATCC 75295 line was conducted at the five-leaf stage of development (i.e., plants fifteen days older than in the test described above), using Accent and Pursuit at the rates given above. […] The ATCC 75295 line was resistant only when herbicide was applied post-emergence.

[5] = system: Non-Resistant Control rice plants (check varieties); test: Greenhouse test of plant vigor after imazethapyr, non-resistant controls; type: in vivo; settings: for Rating of rice plant vigor: 36 days after treatment at 2-3 leaf stage, 10-point scale, 0 = dead plant, 10 = no visible injury
Text: as §3, §4

Structure (SMILES): CCc1cnc(C2=NC(C)(C(C)C)C(=O)N2)c(C(=O)O)c1 (racemic) [imazethapyr, (±)-2-[4,5-dihydro-4-methyl-4-(1-methylethyl)-5-oxo-1H-imidazol-2-yl]-5-ethyl-3-pyridinecarboxylic acid]
- Symptoms of injury (in words) [1]: either severely injured or dead
- Symptoms (in words) ([2]; 4 ounces per acre Pursuit (1.00 ounce a.i. per acre), four-leaf stage, open field): injured or killed
- Symptoms (in words) ([2]; second spray 8 ounces/acre Pursuit (2.00 ounce a.i. per acre), four weeks after the initial treatment, rows that survived the initial spraying): lethal
- Rating of rice plant vigor ([3]; 0.063 lb. a.i./acre): 10
- Rating of rice plant vigor ([3]; 0.125 lb. a.i./acre): 10
- Rating of rice plant vigor ([3]; 0.313 lb. a.i./acre): 10
- Tolerance (in words) ([3]; F3 plants that inherited both resistance mechanisms, up to 0.313 lb. a.i. per acre): tolerance to all levels of herbicide tested
- Visible injury (in words) ([3]; plants with both resistance mechanisms, 0.313 pounds active ingredient per acre, 36 days after treatment): no visible injury
- Time to visible resumption of growth after herbicide application ([3]; resistant F3 plants, greenhouse test): about a week
- Symptoms of injury (in words) [4]: No symptoms of injury
- Resistance of the rice line (in words) (ATCC 75295 rice line; five-leaf stage (plants fifteen days older), same rates as in the three-leaf test): good resistance
- Resistance of the rice line (in words) (ATCC 75295 rice line; three-leaf stage, per acre a.i.: Accent 0.50 ounce, Pursuit 1.00 ounce, Scepter 3.00 ounces, Beacon 0.57 ounce, 0.25% nonionic surfactant): good resistance
- Rating of rice plant vigor ([5]; 0.063 lb. a.i./acre): 0.33 ± 0.18
- Rating of rice plant vigor ([5]; 0.125 lb. a.i./acre): 0.12 ± 0.06
- Rating of rice plant vigor ([5]; 0.313 lb. a.i./acre): 0.15 ± 0.15
- Mortality ([5]; check varieties, all treatments (0.063, 0.125, 0.313 lb. a.i./acre)): 100%
- Effect on plants (in words) ([5]; non-resistant rice, 0.063 pounds active ingredient per acre): completely killed
- Effect on plants (in words) ([5]; nonresistant controls, each of the nonzero rates (0.063, 0.125, 0.313 lb. a.i./acre)): killed
